Common to all, as to assay: inhibition of tumour cell growth, NCI panel, 48 h
Assay [1] has as its system SN12C renal.
The test system of assay [2] is RPMI-8226 leukemia.
For assay [3], the system named is M14 melanoma.
Assay [4] concerns TK-10 renal.
Assay [5] concerns HCT-116 colon.
The test system of assay [6] is SF-268 CNS.
In assay [7] the test system is SF-539 CNS.
For assay [8], the system named is KM12 colon.
Assay [9] relates to HCT-15 colon.
For assay [10], the system named is SR leukemia.
In assay [11] the test system is LOX IMVI melanoma.
Assay [12] concerns NCI-H522 lung.
For assay [13], the system named is SF-295 CNS.
For assay [14], the system named is SK-OV-3 ovarian.
The test system of assay [15] is RXF 393 renal.
The test system of assay [16] is U251 CNS.
Assay [17] has as its system UO-31 renal.
For assay [18], the system named is K-562 leukemia.

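Five compound concentrations were applied to cells in 96-well plates for 48 hours; endpoints were derived by simple linear interpolation of the resulting dose-response curve. Definition used: TGI = concentration required for complete inhibition of growth.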 Some results are limits rather than exact numbers.

Consider 17 compounds from PubChem BioAssay (NCI).

As to `Cn1ccc2c(C(=O)c3ccccc3)cccc2c1=O`, the TGI in [1], in [2], in assay [3], in [4], in assay [5] and in assay [6] was over 100 µM in each case. The TGI in assay [7] was over 100 µM; in [8], over 100 µM; in assay [9] it was over 100 µM; in [10], over 100 µM; in assay [11], over 100 µM; in assay [12], 81.1 µM. Also, the TGI in [13] is 66.9 µM; in assay [14] it was over 100 µM; in assay [15], over 100 µM.
With `O=C1C2C=CC(C2)C(c2ccc(O)cc2)N1O` (centres undefined), the TGI in assay [1], in assay [2], in [3], in assay [16], in assay [4] and in assay [5] was over 100 µM in each case. Further, the TGI in assay [6], in assay [17], in [8], in assay [10], in assay [18] and in assay [12] was over 100 µM throughout. For the same compound, the TGI in [13] and in assay [14] was over 100 µM throughout.
For the compound `CN(C)CC1CCCC(CN(C)C)C1=NOC(=O)c1ccccc1` (centres undefined), the TGI in assay [1], in assay [2], in [3], in assay [16], in assay [4] and in assay [5] was over 100 µM each time. Moreover, the TGI in assay [6], in assay [17], in [7], in assay [8], in assay [9] and in assay [10] was over 100 µM throughout. In addition, the TGI in assay [11], in assay [18], in assay [12], in assay [13] and in assay [14] was over 100 µM each time.
With `CCCC/C=C1\CCC(C)(CN(C)C)C1=O` (centres undefined), the TGI in [1], in assay [3], in [16], in assay [4], in assay [5] and in assay [6] was over 100 µM each time. Besides, the TGI in [17], in assay [7], in assay [8], in assay [9], in [10] and in assay [18] was over 100 µM each time. The TGI in [12] is 75.9 µM; in [13], over 100 µM; in [15], over 100 µM.
For the compound `CCOC(=O)/C(=C\c1cccs1)P(=O)(OCC)OCC`, the TGI in assay [1] is 45.9 µM; in assay [2] it was 77.1 µM; in assay [3], 33.2 µM; in assay [16], 41.9 µM; in assay [4], over 100 µM; in [5], 33.7 µM. The TGI in assay [6] was 60.4 µM; in assay [17] it was 36.1 µM; in [7], 45.4 µM; in assay [8] it was 31.4 µM; in assay [9], 32.4 µM; in [10], over 100 µM. Also, the TGI was 37.5 µM in assay [11]; over 100 µM in assay [18]; 28.4 µM in [12]; over 100 µM in assay [13]; over 100 µM in [14]; 29.4 µM in assay [15].
For `CC(C)(CN1CCCCC1)C(=O)/C=C/c1ccc(Cl)cc1`, the TGI in [1] was determined as 7.24 µM; in assay [2] it was 10.1 µM; in assay [3], 9.79 µM; in assay [16], 11.7 µM; in assay [4] it was 29.1 µM; in assay [5], 13 µM. The TGI amounted to 12.1 µM in assay [6]; 20.2 µM in assay [17]; 5.41 µM in [7]; 11.2 µM in [8]; 9.85 µM in assay [9]; 7.15 µM in assay [10]. For the same compound, the TGI in [11] is 12.5 µM; in assay [18] it was 12.3 µM; in assay [12], 9.9 µM; in assay [13], 11.3 µM; in assay [14], 23.5 µM; in [15], 13.8 µM.
For `COC(=O)[C@]12CC=C3O[C@@H]4OC5(CCCCC5)O[C@@H]4C3[C@@H]1C(=O)CCC2=O` (some centres undefined), the TGI in assay [1], in [2], in assay [3], in assay [16], in [5] and in assay [6] was over 100 µM each time. The TGI in [17], in assay [8], in assay [9], in [11], in assay [18] and in [12] was over 100 µM each time. Further, the TGI in assay [13] and in assay [14] was over 100 µM in each case.
For the compound `CC(C)C(Sc1nc(-c2ccccc2)c(-c2ccccc2)[nH]1)C(=O)NN` (centres undefined), the TGI in [1], in assay [2], in [3], in assay [16], in assay [4] and in [5] was over 100 µM each time. Also, the TGI in assay [6], in assay [17], in [7], in assay [8], in [9] and in assay [11] was over 100 µM each time. The TGI in [12], in assay [13], in assay [14] and in assay [15] was over 100 µM in each case.
On to `COc1cc2c(cc1OC)[C@H]1C(COC(=O)c3ccccc3)CSC(=Nc3ccccc3)N1CC2` (some centres undefined), for which the TGI in [1], in assay [2], in assay [3], in assay [16], in [4] and in [5] was over 100 µM each time. The TGI in assay [6], in [17], in assay [7], in [8], in assay [9] and in assay [10] was over 100 µM in each case. Moreover, the TGI is over 100 µM in [11]; 6.08 µM in assay [12]; over 100 µM in [13]; over 100 µM in assay [14]; over 100 µM in [15].
`O=C(NCCCCCCNC(=O)OCCSCCn1cc(C(=O)NC(=O)OCc2ccccc2)c(=O)[nH]c1=O)OCCSCCn1cc(C(=O)NC(=O)OCc2ccccc2)c(=O)[nH]c1=O`: the TGI in [1], in [2], in assay [3], in [16], in assay [4] and in [17] was over 100 µM throughout. For the same compound, the TGI in [8], in [9], in assay [11], in assay [18], in assay [12] and in assay [13] was over 100 µM throughout. Further, in assay [15], the TGI is over 100 µM.
Take `NC(CCC(=O)NC(CSC(=O)N(O)c1ccccc1)C(=O)NCC(=O)O)C(=O)O` (centres undefined): the TGI in assay [1], in assay [3], in assay [16], in [4], in [5] and in assay [6] was over 1000 µM in each case. For the same compound, the TGI in assay [17], in [7], in [8], in assay [9], in assay [10] and in assay [11] was over 1000 µM in each case. In addition, the TGI in [18], in [12], in [13], in [14] and in assay [15] was over 1000 µM in each case.
On to `COc1cc(C(O)C(=O)c2nc3ccc([N+](=O)[O-])cc3[nH]c2=O)ccc1O` (centres undefined), for which the TGI in [1], in assay [2], in [3], in [16], in [4] and in [5] was over 100 µM in each case. The TGI in assay [6], in assay [17], in assay [7], in assay [8], in [9] and in assay [10] was over 100 µM in each case. The TGI in assay [11], in assay [18], in assay [12], in [13] and in assay [14] was over 100 µM in each case.
In the case of `COC(=O)NN=C1C(C)(C)C(=O)C1(C)C`, the TGI in assay [2], in assay [3], in assay [16], in [4], in assay [5] and in assay [6] was over 100 µM throughout. The TGI in [17], in assay [7], in [8], in assay [11], in [18] and in assay [12] was over 100 µM in each case. The TGI in assay [13], in assay [14] and in assay [15] was over 100 µM in each case.
For `CSc1sc(=S)sc1C(=O)N(C)c1ccccc1`, the TGI in assay [1], in [2], in assay [3], in assay [16], in assay [4] and in assay [5] was over 100 µM throughout. Moreover, the TGI in assay [6], in [17], in assay [7], in [8], in assay [9] and in [10] was over 100 µM in each case. The TGI in assay [11], in [18], in [12], in [13] and in [15] was over 100 µM each time.
Take `CCCCCCCCCCCCCCCCOCC(CP(=O)([O-])OCC[n+]1ccccc1)OC` (centres undefined): the TGI in assay [1] was determined as 24.9 µM; in assay [2] it was 11.8 µM; in assay [3], 17.9 µM; in [4], 8.09 µM; in assay [5] it was 22.1 µM; in assay [6], 24.9 µM. In addition, the TGI in [17] is 21.2 µM; in assay [7], 28.4 µM; in assay [8], 5.62 µM; in assay [10], 15.3 µM; in assay [18], 32.8 µM; in assay [12] it was 39.5 µM. Also, the TGI stood at 15.4 µM in [13] and 32.7 µM in [14].
In the case of `O=c1nc(NC(c2ccccc2)(c2ccccc2)c2ccccc2)ccn1CCNCCn1ccc(NC(c2ccccc2)(c2ccccc2)c2ccccc2)nc1=O`, the TGI turned out to be 44.1 µM in [1]; 69.3 µM in assay [3]; 18.8 µM in [16]; 60.6 µM in assay [4]; 73 µM in assay [5]; 32.4 µM in [6]. In addition, the TGI in assay [17] was over 100 µM; in assay [7], 29.6 µM; in [8] it was 11.9 µM; in assay [9], over 100 µM; in assay [11], 7.86 µM; in [18], over 100 µM. Moreover, the TGI in [12] was 21.5 µM; in assay [13], 27.3 µM; in [14], 46.1 µM; in assay [15] it was 25.6 µM.
For `CC(O)c1ccc[n+](Cc2ccccc2)c1` (centres undefined), the TGI in assay [1], in [2], in assay [16], in [4], in assay [5] and in [6] was over 400 µM in each case. In addition, the TGI in assay [7], in assay [8], in assay [9], in [10], in assay [11] and in assay [18] was over 400 µM throughout. Also, the TGI in assay [12], in [13], in [14] and in assay [15] was over 400 µM throughout.
